Measured values from patent US20220273614A1, “INTRAVENOUS VITAMIN C THERAPY PROTOCOL FOR THE TREATMENT OF CANCER” (Riordan Clinic, priority 2019, published 2022).
Entries after “also recorded” stand apart in the source; their conditions may differ.

Key:
terminal cancer patients [1] = experiment: Blood chemistry (lactate dehydrogenase, glucose) and survival in cancer patients on continuous IVC (updated analysis of Riordan trial); type: in vivo, human
Method: (§1) The second trial of the treatment of cancer patients by continuous infusions was conducted by Dr. Riordan. In this Phase I clinical trial (hereafter referred to as the Riordan trial), patients were administered continuous infusions using an infusion pump [See for example Ref 1]. In the Riordan Clinic trial, patients were treated by continuous infusion, which was administered over much longer periods of time than bolus intermittent treatments. For most patients, the duration of the continuous infusion was at least 20 hours, as the duration of bolus infusion is from one hour to three hours, depending on the dosage.
(§2) The trial lasted eight weeks and involved terminal patients with poor prognosis. Twenty-four (24) subjects were given continuous IVC at doses between 150 and 710 mg/kg/day (10-50 grams per day). Most of the patients had colon cancer with liver and lung metastasis and three patients had pancreatic or liver cancer. All patients had several chemotherapy/radiation treatments before entering the study.
(§3) Recently, previously unpublished parameters from the clinical study were analyzed, including blood chemistry and blood count parameters that are reportedly related to patient prognosis and degree of inflammation [See for example Ref 2]. This included: absolute neutrophil and lymphocyte counts and the neutrophil-to-lymphocyte ratio; lactate dehydrogenase, an enzyme involved in tumor initiation, metastasis, and recurrence; creatinine, the depletion of which is associated with cachexia; and glucose, as hyperglycemia is common in cancer patients.

[2] = Plasma ascorbate during continuous IVC infusion (Riordan Phase I trial); type: in vivo, human; conditions: continuous infusion 150-710 mg/kg/day, cancer patients
Method: as §1, §2
The most obvious effect of IVC therapy was to increase patient vitamin C levels. […] In fact, ten out of twenty-four subjects entered the trial with plasma ascorbate concentrations undetectable by the colorimetric ascorbate assay used at that time, with another four having ascorbate concentrations below the normal range (FIG. 1). IVC infusion increased plasma levels to 1 mM. […]

terminal cancer patients [3] = conditions: 10 g/day continuous IV infusion for 10 days, then oral 10-30 g/day; 100 terminal cancer patients; cited from earlier work
terminal cancer patients [4] = experiment: Safety and adverse events of continuous IVC infusion (Riordan trial); type: in vivo, human
Method: as §1
as §2, with “cancer.” for “cancer. All patients had several chemotherapy/radiation treatments before entering the study.”

[5] = test system: patients suffering from cancer; experiment: Pulse-press intravenous vitamin C protocol in cancer patients (Example 3); type: in vivo, human
Method: Intravenous vitamin C therapy is given by intermittent, high dose infusion that involves administering high-dose vitamin C (15-100 grams) over a 1-2 hour window and repeated twice weekly (every 2-4 days). The intermittent frequency of high-dose administration is referred to as a PULSED approach or as a PULSE dose.
As an adjunct to high-dose intermittent vitamin C infusions, experiments described herein have led to the developments of a method for administering continuous low to mid doses of vitamin C infusion using an elastomeric pump (non-electric) infusion pump over an 8 to 48 hour window. This method of continuous infusion targets a therapeutic dose anywhere between 4 to 50 grams of vitamin C per infusion window and is referred to as a PRESS approach or a PRESS dose.
The intravenous vitamin C+(IVC+) protocol for the treatment of cancer, and other chronic conditions, described herein combines the pulse approach with a press protocol into a PULSE-PRESS approach whereby vitamin C infusions alternate between a high-dose rapid infusion with a low to mid dose continuous infusion.
This clinical application of the IVC+ Protocol is centered on a 2-day cycle of a rapid PULSE infusion immediately followed by a PRESS continuous infusion at a rate of […] of Vitamin C per hour. Over the two week period, each pulse dose of vitamin C is increased to a therapeutic dose as outlined in the original Riordan IVC Protocol [See for example. Ref 1]. Each week back to back pulse-press doses are given followed by a final pulse dose leading into a rest period. These cyclic rest periods are important wherein they provide recovery time necessary for the patient to assimilate the oxidative stress generated within the body.
The protocol has been used on about six subjects to ascertain safety, feasibility and usability of the pump and in coordinating the process with existing therapies. The types of cancer for these patients varied.

terminal cancer patients [6] = experiment: Lymphocyte and neutrophil counts and neutrophil-to-lymphocyte ratio in cancer patients on continuous IVC (updated analysis of Riordan trial); type: in vivo, human
Method: as §1, §2, §3

[7] = rate of increase of LDH before vs after treatment
[8] = a patient suffering from cancer

With `O=C1O[C@H]([C@@H](O)CO)C(O)=C1O` [IVC, L-ascorbic acid] the median survival time (terminal cancer patients [1]; participants with initial LDH higher than normal range (LDH>245 U/L)) was 95 days, the “blood glucose levels during IVC therapy” value (terminal cancer patients [1]; patients with concentrations higher than normal range) was “decreased” and the “patients with LDH rate of growth decreased” value (terminal cancer patients [1]; [7]) was 38 % of patients. The “patients with LDH rate of growth increased” value (terminal cancer patients [1]; [7]) was 28.6 % of patients, the “patients with LDH rate of growth not changed” value (terminal cancer patients [1]; [7]) was 33.4 % of patients and the median survival time (terminal cancer patients [1]; subjects with normal initial LDH values) was 173 days. The “plasma ascorbate level reached during IVC infusion” value [2] was 1 mM, the “survival time and quality of life versus patients who had not received IVC” value (terminal cancer patients [3]) was “increased survival time and improved quality of life” and the “Grade 3 adverse events” value (terminal cancer patients [4]; considered possibly related to the ascorbate therapy) was “Most of the Grade 3 events involved hypokalemia”. For the same compound, the “side effects, overall severity” value (terminal cancer patients [4]; continuous IVC infusion trial) was “mostly minor”, the “renal function indicators BUN and creatinine” value (terminal cancer patients [4]; during therapy) was “remained relatively stable” and the uric acid (terminal cancer patients [4]; during therapy) was “decreased during therapy”. The “grade of the most common side effects” value (terminal cancer patients [4]; in vivo) was “generally minor (Grade 1)”, the “dry skin or mouth” value (terminal cancer patients [4]; of 24 subjects) was 7 subjects and the edema (terminal cancer patients [4]; of 24 subjects) was 7 subjects. The fatigue (terminal cancer patients [4]; of 24 subjects) was 6 subjects, the injector port occlusion (terminal cancer patients [4]; of 24 subjects) was 10 subjects and the nausea (terminal cancer patients [4]; of 24 subjects) was 11 subjects. For the same compound, the “subjects with BUN increases during therapy” value (terminal cancer patients [4]; of 24 subjects) was “four”, the “development of chemo resistance” value [5, 8] was “no signs of the development of chemo resistance” and the efficacy of treatment [5, 8] was “appeared efficacious”. The tolerability [5, 8] was “well-tolerated”, the tolerability ([5]; pulse press protocol, about six subjects, various cancers) was “well tolerated” and the “median improvement in the lymphocyte count” value (terminal cancer patients [6]; all patients with lymphocyte levels lower than normal range, continuous IVC) was 22%. The “neutrophil counts, tendency during treatment” value (terminal cancer patients [6]; most of the patients) was “normalization of the neutrophil counts”, the “rate of growth (change) of neutrophil-to-lymphocyte ratio (NLR)” value (terminal cancer patients [6]; one week before treatment vs during treatment, continuous IVC) was “tended to decrease the rate of growth of NLR; also recorded: rate of change was decreased” and the neutrophil counts (terminal cancer patients [6]; patients for whom neutrophil counts are elevated) was “reducing neutrophil counts”. For the same compound, the “lymphocyte and neutrophil counts” value (terminal cancer patients [6]; patients in whom these numbers are below normal) was “increase lymphocyte and neutrophil counts” and the “median improvement in the lymphocyte count” value (terminal cancer patients [6]; patients with severe lymphopenia who completed treatment, continuous IVC) was 69%.
